Data as given in PubChem BioAssay (NCI).
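Test compounds were applied to cells in 96-well plates for 48 hours at 5 doses. GI50 is the concentration that inhibits growth by half. TGI is the concentration that stops growth completely.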

Columns and labels:
Test in all cases: NCI-60 cell line screen, 48 h
SNB-75 CNS = test system: SNB-75 CNS
HCC-2998 colon = test system: HCC-2998 colon
786-0 renal = test system: 786-0 renal
M14 melanoma = test system: M14 melanoma
RXF 393 renal = test system: RXF 393 renal
UACC-62 melanoma = test system: UACC-62 melanoma
KM12 colon = test system: KM12 colon
BT-549 breast = test system: BT-549 breast
T-47D breast = test system: T-47D breast
SK-MEL-28 melanoma = test system: SK-MEL-28 melanoma
NCI-H522 lung = test system: NCI-H522 lung
COLO 205 colon = test system: COLO 205 colon
SF-539 CNS = test system: SF-539 CNS
OVCAR-5 ovarian = test system: OVCAR-5 ovarian
CAKI-1 renal = test system: CAKI-1 renal
UACC-257 melanoma = test system: UACC-257 melanoma
CCRF-CEM leukemia = test system: CCRF-CEM leukemia
HCT-15 colon = test system: HCT-15 colon
K-562 leukemia = test system: K-562 leukemia
TK-10 renal = test system: TK-10 renal
IGROV1 ovarian = test system: IGROV1 ovarian
HCT-116 colon = test system: HCT-116 colon
NCI/ADR-RES ovarian = test system: NCI/ADR-RES ovarian
SW-620 colon = test system: SW-620 colon
NCI-H460 lung = test system: NCI-H460 lung
HL-60(TB) leukemia = test system: HL-60(TB) leukemia
HOP-62 NSCLC = test system: HOP-62 NSCLC
SK-MEL-5 melanoma = test system: SK-MEL-5 melanoma

Work on `CCOC(=O)c1ccc(NC(=O)Nc2nncs2)cc1` yielded a GI50 (SNB-75 CNS) of 83.2 nM, a TGI (SNB-75 CNS) of 19300 nM and a GI50 (HCC-2998 colon) of 571 nM. It also gave a TGI (HCC-2998 colon) of 8240 nM, a GI50 (786-0 renal) of 474 nM and a TGI (786-0 renal) of 14500 nM. It also gave a GI50 (M14 melanoma) of 104 nM, a TGI (M14 melanoma) of 3020 nM and a GI50 (RXF 393 renal) of 140 nM. It also gave a TGI (RXF 393 renal) of 489 nM, a GI50 (UACC-62 melanoma) of 76.1 nM and a TGI (UACC-62 melanoma) of 26400 nM. It also gave a GI50 (KM12 colon) of 136 nM, a TGI (KM12 colon) of 11800 nM and a GI50 (BT-549 breast) of 735 nM. The TGI (BT-549 breast) was 13300 nM, the GI50 (T-47D breast) was 584 nM and the TGI (T-47D breast) was 34400 nM. For the same compound, the GI50 (SK-MEL-28 melanoma) was 250 nM, the TGI (SK-MEL-28 melanoma) was 56000 nM and the GI50 (NCI-H522 lung) was 74.6 nM. The TGI (NCI-H522 lung) was 1870 nM, the GI50 (COLO 205 colon) was 174 nM and the TGI (COLO 205 colon) was 2630 nM. For the same compound, the GI50 (SF-539 CNS) was 162 nM, the TGI (SF-539 CNS) was 2360 nM and the GI50 (OVCAR-5 ovarian) was 780 nM. For the same compound, the TGI (OVCAR-5 ovarian) was > 100000 nM, the GI50 (CAKI-1 renal) was 427 nM and the TGI (CAKI-1 renal) was > 47000 nM. For the same compound, the GI50 (UACC-257 melanoma) was 1430 nM, the TGI (UACC-257 melanoma) was > 85100 nM and the GI50 (CCRF-CEM leukemia) was 230 nM. The TGI (CCRF-CEM leukemia) was > 52700 nM, the GI50 (HCT-15 colon) was 68.8 nM and the TGI (HCT-15 colon) was > 100000 nM. The GI50 (K-562 leukemia) was 75.4 nM, the TGI (K-562 leukemia) was > 46600 nM and the GI50 (TK-10 renal) was 5790 nM. The TGI (TK-10 renal) was 41200 nM, the GI50 (IGROV1 ovarian) was 374 nM and the TGI (IGROV1 ovarian) was 14800 nM. It also gave a GI50 (HCT-116 colon) of 109 nM, a TGI (HCT-116 colon) of 11800 nM and a GI50 (NCI/ADR-RES ovarian) of 229 nM. The TGI (NCI/ADR-RES ovarian) was 10600 nM, the GI50 (SW-620 colon) was 81.8 nM and the TGI (SW-620 colon) was > 100000 nM. For the same compound, the GI50 (NCI-H460 lung) was 379 nM, the TGI (NCI-H460 lung) was 14100 nM and the GI50 (HL-60(TB) leukemia) was 106 nM. It also gave a TGI (HL-60(TB) leukemia) of 6700 nM, a GI50 (HOP-62 NSCLC) of 237 nM and a TGI (HOP-62 NSCLC) of 15600 nM. For the same compound, the GI50 (SK-MEL-5 melanoma) was 67.2 nM.
